These results are taken from PubChem BioAssay (NCI).

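Test compounds were applied to cells in 96-well plates for 48 hours at 5 doses. Definition used: TGI = concentration required for complete inhibition of growth.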

Test systems include SK-MEL-28 melanoma; SK-MEL-2 melanoma; MALME-3M melanoma; NCI-H23 lung; NCI-H522 lung; SNB-75 CNS; NCI/ADR-RES ovarian; TK-10 renal; PC-3 prostate; K-562 leukemia.
Holding throughout (assay): NCI-60 cell line screen, 48 h

`N/C(=N\S(=O)(=O)c1ccc(S(=O)(=O)c2ccccc2)s1)Nc1ccc(Cl)cc1`: the TGI was 44 µM in the experiment on SK-MEL-28 melanoma; 31.6 µM in the experiment with SK-MEL-2 melanoma; 47.9 µM in the experiment on MALME-3M melanoma; 90.4 µM in the experiment with NCI-H23 lung; 28.9 µM in the experiment on NCI-H522 lung; over 100 µM in the experiment with SNB-75 CNS. Besides, the TGI with NCI/ADR-RES ovarian is 45.1 µM; in the experiment on TK-10 renal, 51.1 µM; in the experiment on PC-3 prostate, 29.6 µM; in the experiment on K-562 leukemia it was 88.2 µM.
Turning to `COc1ccc2nc3c([N+](=O)[O-])ccc4c3c(c2c1)NCCN4CCO`, the TGI in the experiment with SK-MEL-28 melanoma stood at 2.03 µM; with SK-MEL-2 melanoma it was 1.87 µM; in the experiment on MALME-3M melanoma, 1.45 µM; with NCI-H23 lung, 2.45 µM; in the experiment with NCI-H522 lung it was 1.24 µM; in the experiment with SNB-75 CNS it was 1.88 µM. Also, the TGI was 4.41 µM in the experiment with NCI/ADR-RES ovarian, 4.51 µM in the experiment with TK-10 renal, 1.56 µM with PC-3 prostate and 1.08 µM in the experiment with K-562 leukemia.
